Data published in patent US6638973B2, “Taxane formulations” (FSU Research Foundation, Inc., priority 2000, dated 2003).

System: HCT116 cells
Assay: In vitro cytotoxicity measured by the cell colony formation assay
Assay type: cell-based
Details: HCT116 cells, 72 h drug incubation, colonies counted after 7 days; ID50 = drug concentration producing 50% inhibition of colony formation; read-out: IN VITRO ID 50 (nm) HCT116
Procedure, shortened: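 Colony-forming survival was scored 7 days after a 72 h, 37 °C compound exposure followed by washout into fresh medium.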
With `CCC(C)(C)OC(=O)N[C@@H](c1ccco1)[C@@H](O)C(=O)O[C@H]1C[C@@]2(O)[C@@H](OC(=O)c3ccccc3)C3[C@](C)(C(=O)[C@H](O)C(=C1C)C2(C)C)[C@@H](OC(=O)Nc1ccccc1)C[C@H]1OC[C@@]31OC(C)=O` (stereo partly drawn) [Compound 6399] the IC50 was under 10 nM.
`CCC(C)(C)OC(=O)N[C@@H](c1ccco1)[C@@H](O)C(=O)O[C@H]1C[C@@]2(O)[C@@H](OC(=O)c3ccccc3)C3[C@](C)(C(=O)[C@H](O)C(=C1C)C2(C)C)[C@@H](OC(=O)Nc1ccc(F)c(F)c1)C[C@H]1OC[C@@]31OC(C)=O` (stereo partly drawn) [Compound 6404] gave an IC50 of under 10 nM.
Compound `CCNC(=O)O[C@H]1C[C@H]2OC[C@@]2(OC(C)=O)C2[C@H](OC(=O)c3ccccc3)[C@]3(O)C[C@H](OC(=O)[C@H](O)[C@@H](NC(=O)OC(C)(C)C)c4ccco4)C(C)=C([C@@H](O)C(=O)[C@@]21C)C3(C)C` (stereo partly drawn) [Compound 6696] has an IC50 of under 1 nM.

Same assay, conditions: HCT116 cells, 72 h incubation with drug, colonies counted after 7 days; ID50 = drug concentration producing 50% inhibition of colony formation; read-out: IN VITRO ID 50 (nm) HCT116
`CCC(C)(C)OC(=O)N[C@@H](c1ccco1)[C@@H](O)C(=O)O[C@H]1C[C@@]2(O)[C@@H](OC(=O)c3ccccc3)C3[C@](C)(C(=O)[C@H](O)C(=C1C)C2(C)C)[C@@H](OC(=O)OCc1ccccc1)C[C@H]1OC[C@@]31OC(C)=O` (stereo partly drawn) [Compound 6246] showed an IC50 of under 1 nM.
`CCOC(=O)O[C@H]1C(=O)[C@@]2(C)C([C@H](OC(=O)c3ccccc3)[C@]3(O)C[C@H](OC(=O)[C@H](O)[C@@H](NC(=O)C(C)C)c4ccco4)C(C)=C1C3(C)C)[C@]1(OC(C)=O)CO[C@@H]1C[C@@H]2O` (stereo partly drawn) [Compound 6466] gave an IC50 of under 10 nM.
For `C/C=C/C(=O)N[C@@H](c1cccs1)[C@@H](O)C(=O)O[C@H]1C[C@@]2(O)[C@@H](OC(=O)c3ccccc3)C3[C@](C)(C(=O)[C@H](O)C(=C1C)C2(C)C)[C@@H](OC(=O)OCc1ccccc1)C[C@H]1OC[C@@]31OC(C)=O` (stereo partly drawn) [Compound 6566], the IC50 was under 10 nM.

Same assay, conditions: HCT116 colony formation; 72 h drug incubation, colonies counted after 7 days; Example 5, C-7 ester/C-10 hydroxy taxanes; read-out: IN VITRO ID 50 (nm) HCT116
Compound `CCC(=O)O[C@H]1C[C@H]2OC[C@@]2(OC(C)=O)C2[C@H](OC(=O)c3ccccc3)[C@]3(O)C[C@H](OC(=O)[C@H](O)[C@@H](NC(=O)OC=C(C)C)c4ccco4)C(C)=C([C@@H](O)C(=O)[C@@]21C)C3(C)C` (stereo partly drawn) [Compound 6171] has an IC50 of under 10 nM.
Compound `CCCC(=O)O[C@H]1C[C@H]2OC[C@@]2(OC(C)=O)C2[C@H](OC(=O)c3ccccc3)[C@]3(O)C[C@H](OC(=O)[C@H](O)[C@@H](NC(=O)OC=C(C)C)c4ccco4)C(C)=C([C@@H](O)C(=O)[C@@]21C)C3(C)C` (stereo partly drawn) [Compound 6181] has an IC50 of under 1 nM.
`C/C=C/C(=O)N[C@@H](c1ccco1)[C@@H](O)C(=O)O[C@H]1C[C@@]2(O)[C@@H](OC(=O)c3ccccc3)C3[C@](C)(C(=O)[C@H](O)C(=C1C)C2(C)C)[C@@H](OC(=O)C(C)C)C[C@H]1OC[C@@]31OC(C)=O` (stereo partly drawn) [Compound 6202] gave an IC50 of under 1 nM.
`CCC(=O)O[C@H]1C[C@H]2OC[C@@]2(OC(C)=O)C2[C@H](OC(=O)c3ccccc3)[C@]3(O)C[C@H](OC(=O)[C@H](O)[C@@H](NC(=O)OC(C)(C)CC)c4ccco4)C(C)=C([C@@H](O)C(=O)[C@@]21C)C3(C)C` (stereo partly drawn) [Compound 6212] showed an IC50 of under 1 nM.
With `CCC(C)(C)OC(=O)N[C@@H](c1ccco1)[C@@H](O)C(=O)O[C@H]1C[C@@]2(O)[C@@H](OC(=O)c3ccccc3)C3[C@](C)(C(=O)[C@H](O)C(=C1C)C2(C)C)[C@@H](OC(=O)C(C)C)C[C@H]1OC[C@@]31OC(C)=O` (stereo partly drawn) [Compound 6252] the IC50 was under 1 nM.
`CCCC(=O)O[C@H]1C[C@H]2OC[C@@]2(OC(C)=O)C2[C@H](OC(=O)c3ccccc3)[C@]3(O)C[C@H](OC(=O)[C@H](O)[C@@H](NC(=O)OC(C)(C)CC)c4ccco4)C(C)=C([C@@H](O)C(=O)[C@@]21C)C3(C)C` (stereo partly drawn) [Compound 6272] showed an IC50 of under 1 nM.
`CCC(C)(C)OC(=O)N[C@@H](c1ccco1)[C@@H](O)C(=O)O[C@H]1C[C@@]2(O)[C@@H](OC(=O)c3ccccc3)C3[C@](C)(C(=O)[C@H](O)C(=C1C)C2(C)C)[C@@H](OC(=O)CC(C)C)C[C@H]1OC[C@@]31OC(C)=O` (stereo partly drawn) [Compound 6282] gave an IC50 of under 10 nM.
With `CC(=O)O[C@@]12CO[C@@H]1C[C@H](OC(=O)C(C)C)[C@@]1(C)C(=O)[C@H](O)C3=C(C)[C@@H](OC(=O)[C@H](O)[C@@H](NC(=O)OC(C)(C)C)c4cccs4)C[C@@](O)([C@@H](OC(=O)c4ccccc4)C12)C3(C)C` (stereo partly drawn) [Compound 6333] the IC50 was under 1 nM.
In the case of `CCCCC(=O)O[C@H]1C[C@H]2OC[C@@]2(OC(C)=O)C2[C@H](OC(=O)c3ccccc3)[C@]3(O)C[C@H](OC(=O)[C@H](O)[C@@H](NC(=O)OC(C)(C)CC)c4ccco4)C(C)=C([C@@H](O)C(=O)[C@@]21C)C3(C)C` (stereo partly drawn) [Compound 6343], the IC50 is reported as under 10 nM.
In the case of `CCC(=O)O[C@H]1C[C@H]2OC[C@@]2(OC(C)=O)C2[C@H](OC(=O)c3ccccc3)[C@]3(O)C[C@H](OC(=O)[C@H](O)[C@@H](NC(=O)OC(C)(C)C)c4nccs4)C(C)=C([C@@H](O)C(=O)[C@@]21C)C3(C)C` (stereo partly drawn) [Compound 6363], the IC50 is reported as under 10 nM.
`CCC(=O)O[C@H]1C[C@H]2OC[C@@]2(OC(C)=O)C2[C@H](OC(=O)c3ccccc3)[C@]3(O)C[C@H](OC(=O)[C@H](O)[C@@H](NC(=O)OC(C)(C)CC)c4ccco4)C(C)=C([C@@H](O)C(=O)[C@@]21C)C3(C)C` (stereo partly drawn) [Compound 6424] showed an IC50 of 21.7 nM.
`C/C=C/C(=O)O[C@H]1C[C@H]2OC[C@@]2(OC(C)=O)C2[C@H](OC(=O)c3ccccc3)[C@]3(O)C[C@H](OC(=O)[C@H](O)[C@@H](NC(=O)OC(C)(C)C)c4cccs4)C(C)=C([C@@H](O)C(=O)[C@@]21C)C3(C)C` (stereo partly drawn) [Compound 6686] gave an IC50 of under 1 nM.

Same assay, conditions: HCT116 colony formation; 72 h drug incubation, colonies counted after 7 days; Example 10, C-10 ester/C-7 hydroxy taxanes; read-out: IN VITRO ID 50 (nm) HCT116
For `CCC(=O)O[C@H]1C(=O)[C@@]2(C)C([C@H](OC(=O)c3ccccc3)[C@]3(O)C[C@H](OC(=O)[C@H](O)[C@@H](NC(=O)OC(C)(C)CC)c4ccco4)C(C)=C1C3(C)C)[C@]1(OC(C)=O)CO[C@@H]1C[C@@H]2O` (stereo partly drawn) [Compound 6522], the IC50 was under 1 nM.

Same assay, conditions: HCT116 colony formation; 72 h drug incubation, colonies counted after 7 days; Example 15, C-7 substituted acetate/C-10 hydroxy taxanes; read-out: IN VITRO ID 50 (nm) HCT116
Compound `CCC(C)(C)OC(=O)NC(c1ccco1)C(O)C(=O)OC1CC2(O)C(OC(=O)c3ccccc3)C3C4(OC(C)=O)COC4CC(OC(=O)COC)C3(C)C(=O)C(O)C(=C1C)C2(C)C` (stereo not drawn) [Compound 6226, N-Debenzoyl-N-tert-amyloxycarbonyl-3′-desphenyl-3′-(2-furyl)-10-deacetyl-7-methoxyacetyl taxol] has an IC50 of under 1 nM.
With `COCC(=O)O[C@H]1C[C@H]2OC[C@@]2(OC(C)=O)C2[C@H](OC(=O)c3ccccc3)[C@]3(O)C[C@H](OC(=O)[C@H](O)[C@@H](NC(=O)OC(C)(C)C)c4ccco4)C(C)=C([C@@H](O)C(=O)[C@@]21C)C3(C)C` (stereo partly drawn) [Compound 6326] the IC50 was under 1 nM.
In the case of `CCC(C)(C)OC(=O)N[C@@H](c1ccco1)[C@@H](O)C(=O)O[C@H]1C[C@@]2(O)[C@@H](OC(=O)c3ccccc3)C3[C@](C)(C(=O)[C@H](O)C(=C1C)C2(C)C)[C@@H](OC(=O)COC(C)=O)C[C@H]1OC[C@@]31OC(C)=O` (stereo partly drawn) [Compound 6353], the IC50 is reported as under 1 nM.

Same assay, conditions: HCT116 colony formation; 72 h drug incubation, colonies counted after 7 days; Example 20, C-10 substituted acetate/C-7 hydroxy taxanes; read-out: IN VITRO ID 50 (nm) HCT116
Work on `CCC(C)(C)OC(=O)NC(c1ccco1)C(O)C(=O)OC1CC2(O)C(OC(=O)c3ccccc3)C3C4(OC(C)=O)COC4CC(O)C3(C)C(=O)C(OC(=O)COC)C(=C1C)C2(C)C` (stereo not drawn) [Compound 6515, N-Debenzoyl-N-tert-amyloxycarbonyl-3′-desphenyl-3′-(2-furyl)-10-methoxyacetyl taxol] yielded an IC50 of under 1 nM.
`CCC(C)(C)OC(=O)N[C@@H](c1ccco1)[C@@H](O)C(=O)O[C@H]1C[C@@]2(O)[C@@H](OC(=O)c3ccccc3)C3[C@](C)(C(=O)[C@H](OC(=O)COC(C)=O)C(=C1C)C2(C)C)[C@@H](O)C[C@H]1OC[C@@]31OC(C)=O` (stereo partly drawn) [Compound 6577] gave an IC50 of under 1 nM.

Same assay, conditions: Homo sapiens, HCT-116; HCT116 colony formation; 72 h drug incubation, colonies counted after 7 days; Example 5, C-7 ester/C-10 hydroxy taxanes; read-out: IN VITRO ID 50 (nm) HCT116
`CC(=O)O[C@@]12CO[C@@H]1C[C@H](O)[C@@]1(C)C(=O)[C@H](O)C3=C(C)[C@@H](OC(=O)[C@H](O)[C@@H](NC(=O)OC(C)(C)C)c4ccccc4)C[C@@](O)([C@@H](OC(=O)c4ccccc4)[C@H]21)C3(C)C` [docetaxel, reference compound] gave an IC50 of 0.6 nM.
`CC(=O)O[C@H]1C(=O)[C@@]2(C)[C@H]([C@H](OC(=O)c3ccccc3)[C@]3(O)C[C@H](OC(=O)[C@H](O)[C@@H](NC(=O)c4ccccc4)c4ccccc4)C(C)=C1C3(C)C)[C@]1(OC(C)=O)CO[C@@H]1C[C@@H]2O` [taxol, paclitaxel, reference compound] showed an IC50 of 2.1 nM.

System: not given
Assay: not given
Details: intravenous, concentrations required to deliver therapeutic doses of paclitaxel; cited from earlier work
In the case of `CC(=O)OCC(COC(C)=O)OC(C)=O` [triacetin, glyceryl triacetate], the toxicity to mice is given as “toxic”.
